Test [1] deals with IFO2347 strain. The test can be described thus: Dependency on glucose metabolism of pressure-induced CDCF accumulation. It is filed as cell-based. The following applies: Saccharomyces cerevisiae, MBA buffer with 100 mM D-glucose, 10 μM CDCFDA, FIG. 4B, read-out: concentration at which half-maximal inhibition of pressure-induced CDCF accumulation occurred. Here is the method: Cells originated fiom a log-phase culture (2×10^7 to 4×10^7 cells/ml) were incubated with 10 μM CFDA (Sigma, Cat. No. C-5041) in YPD containing 50 mM citric acid (pH 3.0), or 10 μM CDCFDA Molecular Probe, Cat. No. C-369) in YPD containing 50 mM citric acid (pH 5.0), respectively, under varying hydrostatic pressures ranging from ordinary pressure to 60 MPa. To analyze the dependence, on glucose, of pressure-induced dye-accumulation, vegetative cells were collected, washed twice in distilled water and starved for 30 min on ice. […]
To analyze the effect of 2-deoxyglucose, cells were incubated with CDCFDA in MBA buffer containing 100 mM D-glucose. […] Fluorescence of the labeled cells emitted at 535 nm with excitation at 485 nm was detected using CytoFluor 2350 Plate Reader (available from Mlipore), or an RF5300PC spectrofluorometer (available from Shimazu, Japan). Fluorescence intensity (a. u.; arbitrary units) was recorded as the fluorescence of labeled cells minus the fluorescence of non-labeled cells for 10^7 cells.
The cells of the strain were cultured at 24° C. for one hour in MBA buffer containing a desired amount of D-glucose at a predetermined hydrostatic pressure (0.1 MPa (◯), 30 MPa (●)) in the presence of 10 μM CDCFDA. The labeled cells were analyzed using CytoFluor 2350. […]

Test [2] deals with IFO10159 strain. The test can be described thus: Accumulation of CF and CDCF under elevated hydrostatic pressure (CytoFluor 2350). It is filed as cell-based, Saccharomyces cerevisiae. The conditions noted are these: ordinary pressure; for total fluorescence intensity of labeled cells: 10 μM dye, one hour. As for the experimental part:
(§1) Cells of Saccharomyces cerevisiae were grown in YPD (1% yeast extract, 2% bactopeptone, 2% D-glucose) broth at 24° C. Cells from a log-phase culture (2×10^7 to 4×10^7 cells/ml) were collected by centiifugation and re-suspended in fresh YPD containing 50 mM citric acid (pH 3.0 or pH 5.0), then placed in plastic tubes (Cryotubes, available from Nunc) at 2×10^7 to 3×10^7 cells/ml. After sealing with Parafilm, the tubes were put into titanium pressure vessels, followed by application of a desired hydrostatic pressure. The each required hydrostatic pressure was established within 2 min using a hand pump (available from Rigo-sha, Japan). To remove samples, the pressure was released in approximately 15 sec.
(§2) Cells originated fiom a log-phase culture (2×10^7 to 4×10^7 cells/ml) were incubated with 10 μM CFDA (Sigma, Cat. No. C-5041) in YPD containing 50 mM citric acid (pH 3.0), or 10 μM CDCFDA Molecular Probe, Cat. No. C-369) in YPD containing 50 mM citric acid (pH 5.0), respectively, under varying hydrostatic pressures ranging from ordinary pressure to 60 MPa. To analyze the dependence, on glucose, of pressure-induced dye-accumulation, vegetative cells were collected, washed twice in distilled water and starved for 30 min on ice. Then cells were suspended in MBA buffer (100 mM MES-Bis-Tris, 100 mM ammonium sulfate, pH 5.0), followed by addition of CDCFDA and application of a desired hydrostatic pressure of up to 6OMPa for one hour in the presence of D-glucose in various concentrations.
(§3) To analyze the effect of 2-deoxyglucose, cells were incubated with CDCFDA in MBA buffer containing 100 mM D-glucose. Unless otherwise specified, the final concentration of the fluorescent dye was 10 μM. After applying a desired hydrostatic pressure for one hour, the cells were washed twice with 10 mM MES-Bis-Tris (pH 5.0) and suspended in MB buffer. Fluorescence of the labeled cells emitted at 535 nm with excitation at 485 nm was detected using CytoFluor 2350 Plate Reader (available from Mlipore), or an RF5300PC spectrofluorometer (available from Shimazu, Japan). Fluorescence intensity (a. u.; arbitrary units) was recorded as the fluorescence of labeled cells minus the fluorescence of non-labeled cells for 10^7 cells.
(§4) Cells of the IFO2347 strain were incubated with 10 μM of CFDA or CDCFDA and cultured for one hour under each hydrostatic pressure condition. The stained cells were analyzed using Cytofluor 2350. The results thus obtained are plotted on FIG. 1A Similarly, cells of IFO10159 strain were inoculated with 10 μM of CFDA or CDCFDA and cultured for one hour under each hydrostatic pressure condition. The stained cells were analyzed using Cytofluor 2350. The results thus obtained are plotted on FIG. 1B. In FIGS. 1A and 1B, ◯ and ● represent cells stained with CF and those stained with CDCF, respectively.

For test [3], the system named is IFO2347 strain. Described as above. It counts as cell-based, Saccharomyces cerevisiae. The conditions noted are these: 10 μM CFDA or CDCFDA, one hour, FIG. 1A. As for the experimental part:
as §1, §2, §3, §4

For test [4], the system named is IFO2347 strain. The test can be described thus: Effects of hydrostatic pressure on hydrolysis of CDCFDA. It counts as cell-based, Saccharomyces cerevisiae. The following applies: for fluorescence intensity reached (hydrolysis under pressure): 50 μM CDCFDA, FIG. 3A. The text has this:
Fluorescence emission was examined under several hydrostatic pressures in a hydrostatic chamber provided with transparent windows which were made by sapphire (size: 10×8 mm). Each sample in a transparent cuvette was placed in the chamber which was set up in an RF5300PC spectrofluorometer. Fluorescence was emitted at 535 nm with excitation at 485 nm. The fluorescence intensity of the labeled cells was strong enough to be detected through the sapphire windows, even though the emission was reduced compared to the analysis without such a hydrostatic chamber equipped with a sapphire window. Each hydrostatic pressure was applied using a hand pump (available from Teramecs, Co. Ltd., Japan).
A cuvette containing the IFO2347 strain was fitted to a container, followed by addition of 50 μM CDCFDA, application of a hydrostatic pressure at a point P (see FIG. 3A), and examination of the fluorescence intensity change with time in a hydrostatic chamber equipped with RF5300 Fluorescent Spectrometer. The results obtained are plotted on FIG. 3A The fluorescence intensity increased to 300 a.u. and 130 a.u. when hydrostatic pressures of 0.1 MPa (ordinary pressure) and 60 MPa were applied, respectively (FIG. 3A). On the other hand, the fluorescence intensity increased to 770 a.u. when a pressure of 30 MPa was applied.
Cells of the IFD2347 strain were pre-incubated at several hydrostatic pressures for one hour in YPD culture medium (pH 5.0), and subsequently the pre-incubated cells were placed into a cuvette, followed by addition of 50 μM of CDCFDA to the pressure-adapted cells at ordinary pressure and examination of any change in the fluorescence intensity (the hydrolysis activity) by the same method as used above. The results thus obtained are plotted on FIG. 3B. […] Almost identical results were obtained when using CFDA (data not shown).

The subject of test [5] is IFO2347 strain. Put plainly: Flow cytometry of CDCFDA-labeled cells. The conditions noted are these: for mean fluorescence of labeled cells / peak fluorescence of labeled cells: 10 μM CDCFDA, 24° C., one hour. It is filed as cell-based, Saccharomyces cerevisiae. As for the experimental part:
Cells were incubated with 10 μM CFDA or 10 μM CDCFDA and cultivated under several hydrostatic pressures for one hour. After decompression, the labeled (or stained) cells were washed twice with distilled water and re-suspended in MB buffer. The cells were analyzed using the Bryte-HS Flow Cytometry System (available from Bio-Rad) under ordinary pressure.
The IFO2347 strain was cultured at 24° C. for one hour in the presence of 10 μM CDCFDA, under a hydrostatic pressure of 0.1, 30 or 60 MPa. The CDCFDA-labeled cells (about 100,000) were analyzed using the Bryte-HS Flow Cytometry System. FIG.2A depicts the histograms showing the intensity distribution of populations of IFO2347 cells labeled with CDCFDA observed after the cultivation.

`O=CC[C@@H](O)[C@H](O)[C@H](O)CO` [2-deoxyglucose]: in test [1], the IC50 was roughly 12 mM.
With Carboxyfluorescein [CF], in test [2], the “fluorescence intensity relative to non-labeled cells” value came to 1.6 fold and the “total fluorescence intensity of labeled cells” value came out at 15.5 a. u. per 10^7 cells. Further, in test [3], the “hydrostatic pressure at which accumulation peaks” value came out at 40 MPa.
Regarding “Carboxydichlorofluorescein diacetate [CDCFDA]”, the “fluorescence intensity reached (hydrolysis under pressure)” value in test [4] (0.1 MPa (ordinary pressure)) was found to be 300 a.u; in test [4] (30 MPa), 770 a.u; in test [4] (60 MPa) it was 130 a.u. Also, in test [4] (pre-incubation one hour, 50 μM CDCFDA added at ordinary pressure, FIG. 3B), the “rate of hydrolysis by cells adapted to 30 MPa relative to cells adapted to 0.1 MPa or 60 MPa” value is “approximately three times greater”.
Regarding Carboxydichlorofluorescein [CDCF], in test [2], the “fluorescence intensity relative to non-labeled cells” value is on record as “about 2.5 fold” and the “total fluorescence intensity of labeled cells” value is 24.8 a. u. per 10^7 cells. Also, the “hydrostatic pressure at which accumulation peaks” value in test [3] stood at 30 MPa. Moreover, in test [5] (0.1 MPa (ordinary pressure)), the “mean fluorescence of labeled cells” value came out at 26 a.u and the “peak fluorescence of labeled cells” value worked out at 23 a.u. Moreover, the “increase of accumulation of CDCF” value in test [5] (30 MPa for one hour versus ordinary pressure) is listed as “four to six folds”. In test [5] (30 MPa), the “mean fluorescence of labeled cells” value is 162 a.u and the “peak fluorescence of labeled cells” value is 92 a.u. Further, the enhancement of staining result in test [5] (60 MPa) is reported as “not enhanced”.

For the origin of these results see patent publication US6358700B2, “Method for detecting microorganisms by fluorescent staining using hydrostatic pressure” (Japan Marine Science and Technology Center, priority 1998, dated 2002).
